Results from patent US7282522B2, “Hydroxamic acid derivatives and the method for preparing thereof” (Amorepacific Corporation, priority 2003, dated 2007).

Columns and labels:
RARγ = molecular target: T1, RARγ (Homo sapiens, UniProt P13631); test: RARE-luciferase reporter assay in transfected CV-1 cells (affinity to retinoic acid receptor), RARγ; assay type: cell-based; conditions: treated 24 hours at final concentration 10^−4M, control group 5000
T1 construct: expressed in transfected cells; host or cells: CV-1 cells (ATCC)
T1 sequence (P13631 1-454): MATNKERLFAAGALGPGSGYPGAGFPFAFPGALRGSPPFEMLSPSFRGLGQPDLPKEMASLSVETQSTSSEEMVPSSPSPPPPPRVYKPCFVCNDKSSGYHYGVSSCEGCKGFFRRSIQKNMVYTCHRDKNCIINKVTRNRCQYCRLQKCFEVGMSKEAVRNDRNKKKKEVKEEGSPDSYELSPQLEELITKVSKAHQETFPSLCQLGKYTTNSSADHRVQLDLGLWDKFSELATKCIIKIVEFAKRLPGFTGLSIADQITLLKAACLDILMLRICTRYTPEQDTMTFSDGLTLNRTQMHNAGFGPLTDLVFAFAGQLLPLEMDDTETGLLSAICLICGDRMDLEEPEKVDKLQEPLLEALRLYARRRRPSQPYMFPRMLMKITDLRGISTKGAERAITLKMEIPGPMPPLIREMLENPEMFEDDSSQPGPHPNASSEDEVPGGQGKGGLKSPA
Protocol: (§1) Receptor-expression plasmid, pECE-RARα and pECE-RARγ were engineered by the prior method (Mol. Cell. Biol. 1996, 16, 1138-1149). RARE-tk-Luc, i.e. RARE reporter was obtained by inserting RARE fragment from b-RARE-tk-CAT into pGL3 luciferase basic vector. CV-1 cells were obtained from ATCC (American Type Culture Collection).
(§2) CV-1 cells were seeded into 96-well microtiter plate at 5,000 cells per well and cultured in DMEM (Dulbecco's Modified Eagle's Media) supplemented with 2.5% fetal bovine serum. 24 Hours later, the cells were transfected with 10 ng of pECE-RARα, long of pECE-RARγ, 100 ng of reporter plasmid and 100 ng of β-galactosidase-expression vector, using LipofectaminPlus (GIBCO BRL, grand island, N.Y.).

elastase = test: Inhibition of elastase expression in human fibroblasts (ELISA kit); assay type: cell-based; conditions: 10^−4M, 24 hours, serum-free medium, relative to control group = 100
Protocol: (§3) For each culture fluid, elastase production was measured with elastase kit (commercialized by AmershamPharmacia Biotech). Firstly, the culture fluid was added to 96-well plate spread with primary elastase antibody and then antigen-antibody reaction was performed in an incubator for 3 hours. Later, chromophore-conjugated secondary antibody was added to the 96-well plate and then reacted for 15 minutes. Then, color former was added thereto, to induce development at room temperature for 15 minutes. 1M of sulfuric acid was added to stop the reaction. […] The color density depends on the progress of the reaction. The absorbance of the yellow 96-well plate was measured at 405 nm using absorptiometer. Elastase expression was calculated by the following equation 2. Herein, the absorbance of the culture fluid collected from the medium with no material treated was used as a control. Elastase expression (%)=(Absorbance of test group with said material treated/Absorbance of control group with no material treated)×100 [Equation 2]
Elastase expression was evaluated as a relative value, in consideration that the value of control group with no material treated is 100.

rabbits = test: Primary skin irritation test on animals (Draize P.I.I.); conditions: depilated back; for P.I.I. (Primary Irritation Index): 0.5 ml of 1% solution in 1,3-butylene glycol:ethanol 7:3, observed 24 or 72 hours later; for Evaluation (skin irritation): 1% solution, according to Draize's P.I.I.
collagenase = test: Inhibition of collagenase expression in human fibroblasts (ELISA kit); assay type: cell-based; conditions: 10^−4M, 24 hours, serum-free medium, relative to control group = 100
Protocol: Human fibroblasts were seeded into 96-well microtiter plate at 5,000 cells per well and then cultured to 90% of growth in DMEM (Dulbecco's Modified Eagle's Media) supplemented with 2.5% fetal bovine serum. Then, the fibroblastes were cultured in serum-free DMEM for 24 hours and treated for 24 hours with 10^−4M of hydroxamic acid derivatives of Examples 1˜55, retinol or retinoic acid in serum-free medium, and then the culture fluid was collected.
as §3, with “collagenase” for “elastase”, “Collagenase” for “Elastase”, “1.” for “2.”, “1]” for “2]”
Collagenase expression was evaluated as a relative value, in consideration that the value of control group with no material treated is 100.

white guinea pigs = test: Phototoxicity test (UVA irradiation); conditions: for Evaluation (phototoxicity): 1%(w/v) solution, UVA 15 J/cm^2; for Phototoxic index: 50 μl of 1%(w/v) solution, UVA 320~380 nm 15 J/cm^2, observed 24, 48 and 72 hours
Protocol: Test was performed for twenty-five (25) of white guinea pigs whose backs were depilated and fixed. On both sides of the back, six(6) sites of 2 cm×2 cm, three(3) per side were sectioned. Right sites were compared as controls with no irradiation (UV non-irradiation sites) and left sites were irradiated (UV irradiation sites).
30 Minutes later, right sites were shielded with aluminum foil and UVA(320˜380 nm) was irradiated at a distance of about 10 cm therefrom using Waldmann to the final energy of 15 J/cm^2. After 24, 48 and 72 hours elapsed, skin response of guinea pig was observed. […] Evaluation was estimated for each elapsed time, i.e. 24, 48 and 72 hours and maximum scores were selected, to calculate irritation index by the following equation 3. Then, phototoxic index was calculated by the following equation 4. Irritation index=(ΣMaximum of erythema+ΣMaximum of edema)/Number of animals [Equation 3] Phototoxic index=(Irritation index of UV irradiation site)−(Irritation index of UV non-irradiation site) Equation 4]

RARα = molecular target: T2, RARα (Homo sapiens, UniProt P10276); test: RARE-luciferase reporter assay in transfected CV-1 cells (affinity to retinoic acid receptor), RARα; assay type: cell-based; conditions: treated 24 hours at final concentration 10^−4M, control group 1000
T2 construct: expressed in transfected cells; host or cells: CV-1 cells (ATCC)
T2 sequence (P10276 1-462): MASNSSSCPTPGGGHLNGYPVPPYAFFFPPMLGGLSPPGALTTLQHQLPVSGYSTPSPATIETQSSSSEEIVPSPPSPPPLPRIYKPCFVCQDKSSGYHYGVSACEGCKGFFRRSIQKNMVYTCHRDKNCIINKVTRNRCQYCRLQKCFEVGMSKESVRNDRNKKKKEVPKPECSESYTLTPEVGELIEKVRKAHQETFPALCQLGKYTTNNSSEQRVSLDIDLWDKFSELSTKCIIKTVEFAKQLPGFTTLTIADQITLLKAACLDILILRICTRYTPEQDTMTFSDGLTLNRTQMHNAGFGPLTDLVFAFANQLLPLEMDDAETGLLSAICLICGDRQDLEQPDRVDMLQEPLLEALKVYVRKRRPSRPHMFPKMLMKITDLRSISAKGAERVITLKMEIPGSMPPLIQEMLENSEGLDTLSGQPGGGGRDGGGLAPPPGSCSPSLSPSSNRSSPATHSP
Text: This example illustrates affinities of hydroxamic acid derivatives obtained in Examples 1 to 55 to retinoic acid receptor, in comparison with retinol and retinoic acid.
as §1
as §2, with “N.Y.). 24 Hours post-transfection, the cells were treated for 24 hours with hydroxamic acid derivatives of Examples 1˜55 or retinol at a final concentration of 10^−4M or with retinoic acid at a final concentration of 10^−5M, which is 10 times lower concentration than those of the former.” for “N.Y.).”

procollagen type I = test: Effect on collagen biosynthesis (procollagen type I ELISA) in human fibroblasts; assay type: cell-based; conditions: 10^−4M, 24 hours, serum-free medium, relative to control group = 100
Protocol: Human fibroblasts were seeded into 24-well plate at 1×10^5 cells per well and then cultured to 90% of growth.
For each supernatant, procollagen production was measured with procollagen type I ELISA kit.

SMILES	Luciferase activity RARγ (RARγ)	Elastase expression (%) (elastase)	P.I.I. (Primary Irritation Index) (rabbits)	Evaluation (skin irritation) (rabbits)	Collagenase expression (%) (collagenase)	Evaluation (phototoxicity) (white guinea pigs)	Phototoxic index (white guinea pigs)	Luciferase activity RARα (RARα)	Collagen biosynthesis (%) (procollagen type I)
O=C(NO)c1ccc(NC(=O)c2ccccc2)cc1 [Example 1, N-[4-(N-hydroxycarbamoyl)phenyl]benzamide]	12000	79%	0.375	No irritation	78%	No phototoxicity (lower value than 0.5, criterion value to be estimated as no phototoxicity)	0	10000	105%
Cc1ccc(C(=O)Nc2ccc(C(=O)NO)cc2)cc1 [Example 2, N-[4-(N-hydroxycarbamoyl)phenyl][4-methylphenyl]carboxyamide]	11200	78%	0.345	No irritation	68%	No phototoxicity (lower value than 0.5, criterion value to be estimated as no phototoxicity)	0	12000	118%
Cc1cccc(C(=O)Nc2ccc(C(=O)NO)cc2)c1 [Example 3, N-[4-(N-hydroxycarbamoyl)phenyl][3-methylphenyl]carboxyamide]	10000	69%	0.375	No irritation	80%	No phototoxicity (lower value than 0.5, criterion value to be estimated as no phototoxicity)	0	11600	120%
CCc1ccc(C(=O)Nc2ccc(C(=O)NO)cc2)cc1 [Example 4, N-[4-(N-hydroxycarbamoyl)phenyl][4-ethylphenyl]carboxyamide]	12300	70%	0.350	No irritation	78%	No phototoxicity (lower value than 0.5, criterion value to be estimated as no phototoxicity)	0	12000	119%
CCCc1ccc(C(=O)Nc2ccc(C(=O)NO)cc2)cc1 [Example 5, N-[4-(N-hydroxycarbamoyl)phenyl][4-propylphenyl]carboxyamide]	11000	78%	0.375	No irritation	79%	No phototoxicity (lower value than 0.5, criterion value to be estimated as no phototoxicity)	0	18000	125%
CC(C)c1ccc(C(=O)Nc2ccc(C(=O)NO)cc2)cc1 [Example 6, N-[4-(N-hydroxycarbamoyl)phenyl][4-isopropylphenyl]carboxyamide]	12300	79%	0.315	No irritation	85%	No phototoxicity (lower value than 0.5, criterion value to be estimated as no phototoxicity)	0	14500	124%
CCCCc1ccc(C(=O)Nc2ccc(C(=O)NO)cc2)cc1 [Example 7, N-[4-(N-hydroxycarbamoyl)phenyl][4-butylphenyl]carboxyamide]	11700	77%	0.312	No irritation	84%	No phototoxicity (lower value than 0.5, criterion value to be estimated as no phototoxicity)	0	12000	109%
CN(O)C(=O)c1ccc(C(=O)NC23CC4CC(CC(C4)C2)C3)cc1 [Example 44, N-adamantyl [4-(N-hydroxy-N-methylcarbamoyl)phenyl]carboxyamide]	–	–	–	–	–	No phototoxicity (lower value than 0.5, criterion value to be estimated as no phototoxicity)	–	23100	–
CC1=C(/C=C/C(C)=C/C=C/C(C)=C/C(=O)O)C(C)(C)CCC1 [Retinoic acid, retinoic acid, reference compound]	–	68%	1.830	Light irritation	60%	–	–	–	125%
CC1=C(/C=C/C(C)=C/C=C/C(C)=C/CO)C(C)(C)CCC1 [Retinol, retinol, reference compound]	6000	88%	–	–	85%	–	–	2500	120%
